Assay results reported in BindingDB's records for doi:10.3109/14756360903169592 (Ufr Des Sciences Pharmaceutiques Et Ingenierie De La Sante, 2010).

target: T1, Protein farnesyltransferase subunit beta/geranylgeranyltransferase type-1 subunit alpha (Saccharomyces cerevisiae (strain ATCC 204508 / S288c), UniProt P22007+P29703); experiment: Fluorescence-Based PFTase Inhibition Assay; conditions: pH 7.5; 30 °C
T1 sequence (P22007 whole entry): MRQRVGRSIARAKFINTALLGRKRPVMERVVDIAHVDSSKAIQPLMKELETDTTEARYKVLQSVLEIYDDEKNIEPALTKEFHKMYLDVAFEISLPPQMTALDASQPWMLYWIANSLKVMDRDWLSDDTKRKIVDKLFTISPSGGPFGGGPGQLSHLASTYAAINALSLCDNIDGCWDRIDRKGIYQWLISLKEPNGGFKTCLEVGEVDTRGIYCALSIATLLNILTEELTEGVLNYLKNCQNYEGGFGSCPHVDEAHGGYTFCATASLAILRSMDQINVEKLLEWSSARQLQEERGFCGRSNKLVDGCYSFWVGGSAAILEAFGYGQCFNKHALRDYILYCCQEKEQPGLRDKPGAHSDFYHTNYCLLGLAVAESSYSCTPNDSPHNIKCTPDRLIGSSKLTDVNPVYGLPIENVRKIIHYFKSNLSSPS
T1 sequence (P29703 whole entry): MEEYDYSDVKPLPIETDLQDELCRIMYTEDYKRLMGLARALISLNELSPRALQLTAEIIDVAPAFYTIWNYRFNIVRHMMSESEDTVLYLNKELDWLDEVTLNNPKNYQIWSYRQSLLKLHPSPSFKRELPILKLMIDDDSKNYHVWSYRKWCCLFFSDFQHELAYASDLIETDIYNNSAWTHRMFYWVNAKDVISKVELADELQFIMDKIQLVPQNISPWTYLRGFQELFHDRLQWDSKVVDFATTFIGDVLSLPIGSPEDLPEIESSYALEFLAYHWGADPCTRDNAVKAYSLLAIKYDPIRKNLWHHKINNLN
Protocol: Assays were realized on 96-well plates, prepared with Biomek NKMC and Biomek 3000 from Beckman Coulter and read on a Wallac Victor fluorimeter from PerkinElmer. Per well, 20 μL of farnesyl pyrophosphate (10 μM) was added to 180 μL of a solution containing 2 μL of varied concentrations of tested compounds (dissolved in methanol) and 178 μL of a solution composed by 0.1 mL of partially purified recombinant yeast FTase (2.2mg/mL) and 7.0 mL of Dansyl-GCVLS peptide (in the following buffer: 5.8 mM DTT, 12 mM MgCl2, 12 μM ZnCl2, and 0.09% (w/v) CHAPS, 53 mM Tris/HCl, pH 7.5). Then the fluorescence development was recorded for 15 min (0.7 s per well, 20 repeats) at 30°C with an excitation filter at 340 nm and an emission filter at 486 nm.

Row | Compound | IC50
1 | CC(=O)OC(C)/C=C/C1=CC[C@H]2[C@H](C[C@@H]1C)OC(=O)[C@@H]2C (stereo partly drawn) [2,3-(E)-Dehydro-4-epi-isoxanthanol (9)] | 900 µM
2 | C=C1C(=O)O[C@H]2C[C@H](C)c3cc(C(C)=O)oc3C[C@H]12 [3,5-Oxyxanthatin (7)] | > 1000 µM
3 | CC(O)CCC1=CC[C@@H]2C(C)C(=O)O[C@H]2C[C@@H]1C (stereo partly specified) [4,11,13-Tetrahydroxanthinosin (14)] | > 1000 µM
4 | CC(O)/C=C/C1=CC[C@H]2[C@H](C[C@@H]1C)OC(=O)[C@@H]2C (stereo partly drawn) [4,11β,13-Tetrahydroxanthatin (8)] | > 1000 µM
5 | C/C=C(/C)C(=O)O[C@H]1[C@H]2[C@H](C)C(=O)O[C@@H]2C[C@@H](C)[C@@H]2C=CC(=O)[C@]21C [6-O-angeloylprenolin] | 18.8 µM
6 | C=C1C(=O)O[C@@H]2C[C@H](C)[C@]3(/C=C/C(C)=O)O[C@@H]3C[C@H]12 [8-Epi-xanthatin-1,5α-epoxide] | 58 µM
7 | C=C1C(=O)O[C@@H]2C[C@H](C)C(/C=C/C(C)=O)=CC[C@H]12 [8-Epi-xanthatin] | 64 µM
8 | CC(=O)CCC1=CC[C@@H]2C(C)C(=O)O[C@H]2C[C@@H]1C (stereo partly specified) [11,13-Dihydroxanthinosin (13)] | 240 µM
9 | CC(=O)OC(CC(C)O)C1=CC[C@H]2[C@H](C[C@@H]1C)OC(=O)[C@@H]2C (stereo partly drawn) [11β,13-Dihydro-4-epi-isoxanthanol (16)] | 633 µM
10 | CC(=O)/C=C/C1=CC[C@H]2[C@H](C[C@@H]1C)OC(=O)[C@@H]2C [11β,13-Dihydroxanthatin (10)] | 210 µM
11 | CC(=O)/C=C/[C@@]12O[C@@H]1C[C@H]1[C@H](C[C@@H]2C)OC(=O)[C@@H]1C [11β,13-Dihydroxanthatin-1,5α-epoxide (11)] | 90 µM

Next, values leading:

Row | IC50 | Compound
12 | 66 µM | CC(=O)/C=C/[C@]12O[C@H]1C[C@H]1[C@H](C[C@@H]2C)OC(=O)[C@@H]1C [11β,13-Dihydroxanthatin-1,5β-epoxide (12)]
13 | 40 µM | C=C1C(=O)O[C@H]2C[C@H](C)C(C(CC(C)OC(C)=O)OC(C)=O)=CC[C@H]12 (stereo partly drawn) [Acetyl-4-epi-isoxanthanol (6)]
14 | 40 µM | CC(=O)OC(C)CC(OC(C)=O)C1=CC[C@H]2[C@H](C[C@@H]1C)OC(=O)[C@@H]2C (stereo partly drawn) [Acetyl-11β,13-dihydro-4-epi-isoxanthanol (15)]
15 | 0.95 µM | C=C1C(=O)O[C@@H]2C3C4(C=C[C@@]3(C)C3(C4)C(=O)O[C@@H]4[C@H]5C(C)=CC(=O)[C@H]5[C@@H](C)C[C@H](OC(=O)/C(C)=C\C)[C@H]43)[C@](C)(O)CC[C@@H]12 (stereo partly specified) [Arteminolide C']
16 | 1 µM | C/C=C(/C)C(=O)O[C@H]1C[C@H](C)[C@@H]2C(=O)C=C(C)[C@@H]2[C@H]2OC(=O)C3(CC45C=C[C@]3(C)C4[C@H]3OC(=O)C(C)[C@@H]3CC[C@@]5(C)O)[C@@H]21 (stereo partly specified) [Arteminolide C]
17 | 100 µM | C=C1C(=O)O[C@H]2C[C@H](C)C(/C=C/C(C)=O)=CC[C@H]12 [Xanthatin (2)]
18 | 100 µM | C=C1C(=O)O[C@H]2C[C@H](C)[C@]3(/C=C/C(C)=O)O[C@@H]3C[C@H]12 [Xanthatin-1,5α-epoxide (5)]
19 | 500 µM | C=C1C(=O)O[C@H]2C[C@H](C)[C@@]3(/C=C/C(C)=O)O[C@H]3C[C@H]12 [Xanthatin-1,5β-epoxide (4)]
20 | 150 µM | C=C1C(=O)O[C@H]2C[C@H](C)C(C(CC(C)=O)OC(C)=O)=CC[C@H]12 (stereo partly drawn) [α-Methylene-γ-lactone, 1]
21 | > 1000 µM | C=C1C(=O)O[C@H]2C[C@H](C)C(C(CC(C)O)OC(C)=O)=CC[C@H]12 (stereo partly drawn) [α-Methylene-γ-lactone, 3]
